Measured values as given in patent publication EP0011400A1, “An aminoglycosidic antibiotic salt” (priority 1978, dated 1980).
Structures can show the parent of a compound that is named as a salt.

How the values were obtained:
Male Hartley guinea pigs [1] = assay: Example 7: toxicity of dibekacin salts on intramuscular injection for 21 days (deaths, pinna reflex, BUN); type: in vivo; details: for Number of guinea pigs which lost pinna reflex 10days / Number of guinea pigs which lost pinna reflex 14days / Number of guinea pigs which lost pinna reflex 17days / Number of guinea pigs which lost pinna reflex 21days: 180 mg (as a free base)/kg/day intramuscular, 20,000 Hz pure tone; for Number of guinea pigs which lost pinna reflex 21days: * including dead cases; for Number died/ Number tested: guinea pigs, intramuscular, 21 consecutive days; for Number died/ Number tested / BUN: 180 mg (as a free base)/kg/day; for BUN: sera, 24 hours after final dose; for Number of guinea pigs which lost pinna reflex 21days / BUN: 21 days
Protocol: The second group was injected with an equal dose of a solution of dibekacin sulfate in water for injection. […] During the intramuscu]ar injection, the pinna reflex of each subject guinea pig to a pure tone having a frequency of 20,000 Hz was determined. Twenty-four hours after the injection with the final dose, the level of BUN in sera was measured.

[2] = test system: Pseudomonas aeruginosa E-2; assay: Example 10: survival of mice infected intraperitoneally; type: in vivo; details: ICR-JCL mice, intramuscular; for Percentage Survival (%) Dosage 0.0625 mg: 0.0625 mg (as a free base)/mouse; for Percentage Survival (%) Dosage 0.0625 mg / Percentage Survival (%) Dosage 0.25 mg / Percentage Survival (%) Dosage 1 mg: one week after the injection; for Percentage Survival (%) Dosage 1 mg: 1 mg (as a free base)/mouse; for ED50: Pseudomonas aeruginosa, E2, im, 168 h, calculated by Ritchfield-Wilcoxon technique, the two values not significantly different
Protocol: The second group was injected with a solutio of dibekacin sulfate in sterile physiological saline solution in the above indicated doses. […] The percentage survival of each group was checked one week after the injection.

[3] = Solubility of the salt powder in water and organic solvents; type: physicochemical
Male Hartley guinea pigs [4] = assay: Example 8: toxicity of tobramycin and bekanamycin salts on intramuscular injection (deaths, pinna reflex); type: in vivo; details: for Number died/ Number tested: guinea pigs, intramuscular; for Pinna Reflex Lost: * including dead cases
Protocol: The second group was injected with a solution of tobramycin sulfate in water for injection in an equal dose. […] After injection with the final dose, the pinna reflex of each subject guinea pig to a pure tone having a frequency of 15,000 Hz was determined. […] Both group were then subjected to determination of their pinna reflex to a 15,000^-Hz pure tone.

[5] = pH of an aqueous solution of the salt; type: physicochemical
Male Hartley guinea pigs [6] = assay: Example 6: toxicity of gentamicin salts on intramuscular injection for 14 days (deaths, pinna reflex, BUN, CRE); type: in vivo; details: 100 mg (as a free base)/kg/day; for CRE: creatine in sera; for CRE / BUN: 24 hours after the pinna reflex determination; for Number died/ Number tested: 14 consecutive days; for BUN: sera
Protocol: The amount of the test compounds administered was calculated on the basis of the free base (i.e., free gentamicin). […] The second group was injected with an equal dose of a solution of gentamicin sulfate in water for injection. […] After injection with the final dose, each group was subjected to a pure tone having a frequency of 20,000 Hz to determine the pinna reflex of the subject guinea pigs. Twenty-four hours after the determination, the levels of blood urea nitrogen (BUN) and creatine (CRE) in sera were measured.

Male Hartley guinea pigs [7] = assay: Example 11: pinna reflex after intramuscular injection of gentamicin salts for 21 days; details: 80 mg (as a free base)/kg/day, 20,000 Hz pure tone after final dose
Protocol: Male Hartley guinea pigs weighing 300 g on average were used as the test animals in three groups each consisting of 6 guinea pigs which were subjected to intramuscular injection of the following substances for 21 consecutive days. The first group was injected with a solution of the salt of gentamicin and D-glucaro-1,5-lactam in water for injection in a dose of 80 mg (as a free base)/kg/day. The second group was injected with a solution of gentamicin sulfate in water for injection in an equal dose. The third group was a control which was injected with distilled water.

Male Hartley guinea pigs [8] = assay: Example 9: toxicity of kanamycin A salts on intramuscular injection for 14 days (deaths, pinna reflex, BUN); type: in vivo; details: 400 mg (as a free base)/kg/day, 14 consecutive days
Protocol: The second group was injected with a solution of kanamycin A sulfate in water for injection in an equal dose. The third group was injected with a solution of a mixture of kanamycin A sulfate and potassium salt of D-glucaro-1,5-lactam (in a molar ratio of […]) in water for injection in an eaual dose.

[9] = 120 mg (as a free base)/kg/day, 16 days, 15,000 Hz pure tone after final dose
[10] = guinea pigs, intramuscular, 14 days, 20,000 Hz pure tone after final dose
[11] = 250 mg (as a free base)/kg/day, 14 days, 15,000 Hz pure tone
[12] = 250 mg (as a free base)/kg/day, 14 consecutive days

## NCC1CCC(N)C(OC2C(N)CC(N)C(OC3OC(CO)C(O)C(N)C3O)C2O)O1 (stereo not shown) [Dibekacin sulfate, dibekacin sulfate, reference compound]
Male Hartley guinea pigs [1]
  Number of guinea pigs which lost pinna reflex 10days: 0/6
  Number of guinea pigs which lost pinna reflex 14days: 3/6
  Number of guinea pigs which lost pinna reflex 17days: 3/6
  Number of guinea pigs which lost pinna reflex 21days: 5/6*
  Number died/ Number tested: 1/6
  BUN: 41.8 ± 26.9 mg/dL
[2]
  Percentage Survival (%) Dosage 0.0625 mg: 0%
  Percentage Survival (%) Dosage 0.25 mg: 30%
  Percentage Survival (%) Dosage 1 mg: 100%
  ED50: 15.7 mg/kg

## NC[C@@H]1CC[C@@H](N)[C@@H](O[C@H]2[C@H](O)[C@@H](O[C@H]3O[C@H](CO)[C@@H](O)[C@H](N)[C@H]3O)[C@H](N)C[C@@H]2N)O1 [Glucarolactam salt of dibekacin, Salt of dibekacin and D-glucaro-1,5-lactam]
[3]
  solubility in ethanol, acetone, ethyl acetate and chloroform: very slightly soluble
  solubility in methanol: sparingly soluble
  solubility in water: freely soluble
Male Hartley guinea pigs [1]
  Number of guinea pigs which lost pinna reflex 10days: 0/6
  Number of guinea pigs which lost pinna reflex 14days: 0/6
  Number of guinea pigs which lost pinna reflex 17days: 0/6
  Number of guinea pigs which lost pinna reflex 21days: 3/6
  Number died/ Number tested: 0/6
  BUN: 35.7 ± 13.3 mg/dL
[2]
  Percentage Survival (%) Dosage 0.0625 mg: 0%
  Percentage Survival (%) Dosage 0.25 mg: 20%
  Percentage Survival (%) Dosage 1 mg: 100%
  ED50: 19.1 mg/kg

## NCC1OC(OC2C(N)CC(N)C(OC3OC(CO)C(O)C(N)C3O)C2O)C(N)CC1O (stereo not shown) [Tobramycin sulfate, tobramycin sulfate]
Male Hartley guinea pigs [4]; [9]
  Pinna Reflex Dull: 2/9
  Pinna Reflex Normal: 7/9
Male Hartley guinea pigs [4]; 120 mg (as a free base)/kg/day, 16 consecutive days
  Number died/ Number tested: 0/9

## Salt of gentamicin and D-glucaro-1,5-lactam [Glucarolactam salt of gentamicin]
[3]
  solubility in ethanol, acetone, ethyl acetate and chloroform: very slightly soluble
  solubility in methanol: sparingly soluble
  solubility in water: freely soluble
[5]
  pH of an aqueous solution of the salt: 6.7
Male Hartley guinea pigs [6]; 14 days
  CRE: 1.20±0.51
  BUN: 64.6 ± 43.97 mg/dL
Male Hartley guinea pigs [6]; guinea pigs, intramuscular
  Number died/ Number tested: 2/9
Male Hartley guinea pigs [6]; [10]
  Pinna Reflex Lost: 1/7
  Pinna Reflex Normal: 6/7
Male Hartley guinea pigs [7]
  Pinna Reflex Dull: 2/6
  Pinna Reflex Normal: 3/6
Male Hartley guinea pigs [7]; * including one guinea pig dead on the 21th day
  Pinna Reflex Lost: 1/6

## NC[C@H]1O[C@H](O[C@H]2[C@H](O)[C@@H](O[C@H]3O[C@H](CO)[C@@H](O)[C@H](N)[C@H]3O)[C@H](N)C[C@@H]2N)[C@H](O)[C@@H](O)[C@@H]1O [Kanamycin sulfate, kanamycin A sulfate, reference compound]
Male Hartley guinea pigs [8]
  Number died/ Number tested: 0/6

## NC[C@H]1O[C@H](O[C@H]2[C@H](O)[C@@H](O[C@H]3O[C@H](CO)[C@@H](O)[C@H](N)[C@H]3O)[C@H](N)C[C@@H]2N)[C@H](N)[C@@H](O)[C@@H]1O [Glucarolactam salt of bekanamycin, Salt of bekanamycin and D-glucaro-1,5-lactam]
[3]
  solubility in ethanol, acetone, ethyl acetate and chloroform: very slightly soluble
  solubility in water: freely soluble
Male Hartley guinea pigs [4]; [11]
  Pinna Reflex Dull: 3/6
  Pinna Reflex Lost: 3/6
Male Hartley guinea pigs [4]; [12]
  Number died/ Number tested: 0/6

## NC[C@H]1O[C@H](O[C@H]2[C@H](O)[C@@H](O[C@H]3O[C@H](CO)[C@@H](O)[C@H](N)[C@H]3O)[C@H](N)C[C@@H]2N)[C@H](O)[C@@H](O)[C@@H]1O [Glucarolactam salt of kanamycin, Salt of kanamycin A and D-glucaro-1,5-lactam]
[3]
  solubility in ethanol, acetone, ethyl acetate and chloroform: very slightly soluble
  solubility in water: freely soluble
Male Hartley guinea pigs [8]
  Number died/ Number tested: 0/6

## NC[C@H]1O[C@H](O[C@H]2[C@H](O)[C@@H](O[C@H]3O[C@H](CO)[C@@H](O)[C@H](N)[C@H]3O)[C@H](N)C[C@@H]2N)[C@H](N)[C@@H](O)[C@@H]1O [Bcanamycin sulfate, bekanamycin sulfate]
Male Hartley guinea pigs [4]; [11]
  Pinna Reflex Dull: 1/4
  Pinna Reflex Lost: 3/4*
Male Hartley guinea pigs [4]; [12]
  Number died/ Number tested: 2/6

## gentamicin sulfate [reference compound]
Male Hartley guinea pigs [6]; 14 days
  CRE: 1.80±0.57
  BUN: 92.3 ± 50.42 mg/dL
Male Hartley guinea pigs [6]; guinea pigs, intramuscular
  Number died/ Number tested: 7/9
Male Hartley guinea pigs [6]; [10]
  Pinna Reflex Dull: 2/5
  Pinna Reflex Lost: 3/5
